Columns and labels:
SW480 = assay: cells; type: cell-based; conditions: for Basal_Viability ATP SW480 IC50/EC50 / IC50: assay number 24; for IC50: read-out: Basal_Viability ATP SW480 summarized IC50
Colo320 = assay: cells; type: cell-based; conditions: for Basal_Viability ATP Colo 320 IC50/EC50 / IC50: assay number 27; for IC50: read-out: Basal_Viability ATP Colo 320 summarized IC50
RKO = assay: cells; type: cell-based; conditions: for Basal_Viability ATP RKO IC50/EC50 / IC50: assay number 29; for IC50: read-out: Basal_Viability ATP RKO summarized IC50
HCT116 = assay: cells; type: cell-based; conditions: basal; for Basal_Viability ATP HCT116 IC50/EC50 / IC50: assay number 25; for IC50: read-out: Basal_Viability ATP HCT116 summarized IC50
[1] = test system: ECFC/ADSC co-culture cell nuclei number; conditions: for IC50: read-out: VEGF_ADSC\ECFC Angio Hoechst NucArea summarized IC50
HT-29 = assay: cells; type: cell-based; conditions: for Basal_Viability ATP HT-29 IC50/EC50 / IC50: assay number 28; for IC50: read-out: Basal_Viability ATP HT-29 summarized IC50
SNU-C1 = assay: cells; type: cell-based; conditions: for Basal_Viability ATP SNU-C1 IC50/EC50 / IC50: assay number 30; for IC50: read-out: Basal_Viability ATP SNU-C1 summarized IC50
DLD-1 = assay: cells; type: cell-based; conditions: for Basal_Viability ATP DLD-1 IC50/EC50 / IC50: assay number 23; for IC50: read-out: Basal_Viability ATP DLD-1 summarized IC50
[2] = test system: endothelial tube formation in co-cultures of ECFCs and ADSCs treated with VEGF; assay: cells; type: cell-based, human; conditions: for IC50: read-out: VEGF_ADSC\ECFC Angio CD31 TubeArea summarized IC50
[3] = test system: HCT116 cells treated with a GSK3β inhibitor; assay: cells; type: cell-based; conditions: for GSK3b inh pretreated_Viability ATP HCT116 IC50/EC50 / IC50: assay number 26, GSK3b inhibitor pretreated; for IC50/EC50, GSK3b inh pretreated_Viability ATP HCT116 (assay number 26): GSK3b inh pretreated; for IC50: read-out: GSK3b inh pretreated_Viability ATP HCT116 summarized IC50

SMILES	Basal_Viability ATP SW480 IC50/EC50 (SW480; basal) [µM]	Basal_Viability ATP Colo 320 IC50/EC50 (Colo320; basal) [µM]	Basal_Viability ATP RKO IC50/EC50 (RKO; basal) [µM]	Basal_Viability ATP HCT116 IC50/EC50 (HCT116) [µM]	VEGF_ADSC\ECFC Angio Hoechst NucArea IC50/EC50 [1] [µM]	Basal_Viability ATP HT-29 IC50/EC50 (HT-29; basal) [µM]	Basal_Viability ATP SNU-C1 IC50/EC50 (SNU-C1; basal) [µM]	Basal_Viability ATP DLD-1 IC50/EC50 (DLD-1; basal) [µM]	VEGF_ADSC\ECFC Angio CD31 TubeArea IC50/EC50 [2] [µM]	GSK3b inh pretreated_Viability ATP HCT116 IC50/EC50 [3] [µM]	other results
CCCCCCCC[N+](C)(C)CCCCCCCC [NCGC00182056-04]	3.4577	4.6621	2.183	6.2411	7.431	3.9986	1.4417	3.2197	1.3911	3.6902	
O=C1NCCN1CCN1CCC(c2cn(-c3ccc(F)cc3)c3ccc(Cl)cc23)CC1 [NCGC00181782-03]											IC50/EC50, Basal_Viability ATP SW480 (assay number 24) (SW480; basal): 2.8086 µM; IC50/EC50, Basal_Viability ATP Colo 320 (assay number 27) (Colo320; basal): 3.6991 µM; IC50/EC50, Basal_Viability ATP RKO (assay number 29) (RKO; basal): 2.6022 µM; IC50/EC50, Basal_Viability ATP HCT116 (assay number 25) (HCT116): 2.1598 µM; IC50/EC50, VEGF_ADSC\ECFC Angio Hoechst NucArea (assay number 3) [1]: > 10 µM; IC50/EC50, Basal_Viability ATP HT-29 (assay number 28) (HT-29; basal): 2.8613 µM; IC50/EC50, Basal_Viability ATP SNU-C1 (assay number 30) (SNU-C1; basal): 1.4252 µM; IC50/EC50, Basal_Viability ATP DLD-1 (assay number 23) (DLD-1; basal): 5.6233 µM; IC50/EC50, VEGF_ADSC\ECFC Angio CD31 TubeArea (assay number 2) [2]: > 10 µM; IC50/EC50, GSK3b inh pretreated_Viability ATP HCT116 (assay number 26) [3]: 3.5177 µM
CCC1Nc2cc(Cl)c(S(N)(=O)=O)cc2S(=O)(=O)N1 (stereo not shown) [NCGC00160540-03]	> 6.6667	> 20	> 20	> 20	> 10	> 20	> 20	> 20	> 10	> 20	
CSc1ccc2c(c1)N(CCC1CCCCN1C)c1ccccc1S2 (stereo not shown) [NCGC00016059-13]	3.7076	7.9244	5.4868	> 20	9.242	5.8969	2.905	> 20	> 10	8.1146	
CCCCCCCC(=O)OCC(COC(=O)CCCCCCC)OC(=O)CCCCCCC [NCGC00091285-03]	> 20	> 20	> 20	> 20	> 10	> 20	> 20	> 20	> 10	> 20	
CC1(C)[C@H](C=C(Cl)Cl)[C@@H]1C(=O)OCc1c(F)c(F)cc(F)c1F [NCGC00344542-01]					> 10				> 10		Basal_Viability ATP SW480 IC50/EC50 (SW480; concentration response): > 20 µM; Basal_Viability ATP Colo 320 IC50/EC50 (Colo320; concentration response): > 20 µM; Basal_Viability ATP RKO IC50/EC50 (RKO; concentration response): > 20 µM; Basal_Viability ATP HCT116 IC50/EC50 (HCT116; concentration response): > 20 µM; Basal_Viability ATP HT-29 IC50/EC50 (HT-29; concentration response): > 20 µM; Basal_Viability ATP SNU-C1 IC50/EC50 (SNU-C1; concentration response): > 20 µM; Basal_Viability ATP DLD-1 IC50/EC50 (DLD-1; concentration response): > 20 µM; GSK3b inh pretreated_Viability ATP HCT116 IC50/EC50 ([3]; concentration response): > 20 µM
CCCCN1CCCC1C(=O)Nc1c(C)cc(C)cc1C (stereo not shown) [NCGC00160363-03]	> 20	> 20	> 20	> 20	> 10	> 20	> 20	> 20	> 10	> 20	
CCCCCCCCOC(=O)c1ccccc1C(=O)OCCCCCCCC [NCGC00090781-05]	> 20	> 20	> 20	> 20	> 10	> 20	> 20	> 20	> 10	> 20	
O=C(NC(=O)c1c(F)cccc1F)Nc1ccc(Cl)c(Oc2ncc(C(F)(F)F)cc2Cl)c1 [NCGC00166205-02]					> 10				> 10		Basal_Viability ATP SW480 IC50/EC50 (SW480; concentration response): > 20 µM; Basal_Viability ATP Colo 320 IC50/EC50 (Colo320; concentration response): > 20 µM; Basal_Viability ATP RKO IC50/EC50 (RKO; concentration response): 11.8144 µM; Basal_Viability ATP HCT116 IC50/EC50 (HCT116; concentration response): > 20 µM; Basal_Viability ATP HT-29 IC50/EC50 (HT-29; concentration response): > 20 µM; Basal_Viability ATP SNU-C1 IC50/EC50 (SNU-C1; concentration response): > 20 µM; Basal_Viability ATP DLD-1 IC50/EC50 (DLD-1; concentration response): > 20 µM; GSK3b inh pretreated_Viability ATP HCT116 IC50/EC50 ([3]; concentration response): 10.6205 µM
Clc1ccc(C(Cn2ccnc2)OCc2ccsc2Cl)c(Cl)c1 (stereo not shown) [NCGC00167430-04]	> 20	5.2288	5.2538	4.0687	9.466	> 20	2.1843	> 20	4.9961	2.843	
COC(=O)c1ccccc1C(=O)OC [NCGC00090692-06]											IC50 (SW480; basal): > 20 µM; IC50 (Colo320; basal): > 20 µM; IC50 (RKO; basal): > 20 µM; IC50 (HCT116): > 20 µM; IC50 [1]: > 10 µM; IC50 (HT-29; basal): > 20 µM; IC50 (SNU-C1; basal): > 20 µM; IC50 (DLD-1; basal): > 20 µM; IC50 [2]: > 10 µM; IC50 [3]: > 20 µM
COCC(C)N(C(=O)CCl)c1c(C)csc1C (stereo not shown) [NCGC00163935-05]	> 20	> 20	> 20	> 20	> 10	> 20	> 20	> 20	> 10	> 20	
C[C@H](O)CN(C)C [NCGC00166221-02]											IC50/EC50, Basal_Viability ATP SW480 (assay number 24) (SW480; basal): > 20 µM; IC50/EC50, Basal_Viability ATP Colo 320 (assay number 27) (Colo320; basal): > 20 µM; IC50/EC50, Basal_Viability ATP RKO (assay number 29) (RKO; basal): > 20 µM; IC50/EC50, Basal_Viability ATP HCT116 (assay number 25) (HCT116): > 20 µM; IC50/EC50, VEGF_ADSC\ECFC Angio Hoechst NucArea (assay number 3) [1]: > 10 µM; IC50/EC50, Basal_Viability ATP HT-29 (assay number 28) (HT-29; basal): > 20 µM; IC50/EC50, Basal_Viability ATP SNU-C1 (assay number 30) (SNU-C1; basal): > 20 µM; IC50/EC50, Basal_Viability ATP DLD-1 (assay number 23) (DLD-1; basal): > 20 µM; IC50/EC50, VEGF_ADSC\ECFC Angio CD31 TubeArea (assay number 2) [2]: > 10 µM; IC50/EC50, GSK3b inh pretreated_Viability ATP HCT116 (assay number 26) [3]: > 20 µM
COP(=S)(OC)Oc1ccc(Sc2ccc(OP(=S)(OC)OC)cc2)cc1 [NCGC00163910-05]											IC50 (SW480; basal): 0.0118 µM; IC50 (Colo320; basal): > 20 µM; IC50 (RKO; basal): 12.1 µM; IC50 (HCT116): > 20 µM; IC50 [1]: > 10 µM; IC50 (HT-29; basal): > 20 µM; IC50 (SNU-C1; basal): 3.03 µM; IC50 (DLD-1; basal): > 20 µM; IC50 [2]: > 10 µM; IC50 [3]: > 20 µM
CCCn1cnc2c1c(=O)n(CCCCC(C)=O)c(=O)n2C [NCGC00015861-09]	> 20	> 20	> 20	> 20	> 10	> 20	> 20	> 20	> 10	> 20	
Cc1cccc(Nc2cc(Cl)nc(SCC(=O)O)n2)c1C [NCGC00014702-15]											IC50/EC50, Basal_Viability ATP SW480 (assay number 24) (SW480; basal): > 20 µM; IC50/EC50, Basal_Viability ATP Colo 320 (assay number 27) (Colo320; basal): > 20 µM; IC50/EC50, Basal_Viability ATP RKO (assay number 29) (RKO; basal): > 20 µM; IC50/EC50, Basal_Viability ATP HCT116 (assay number 25) (HCT116): > 20 µM; IC50/EC50, VEGF_ADSC\ECFC Angio Hoechst NucArea (assay number 3) [1]: > 10 µM; IC50/EC50, Basal_Viability ATP HT-29 (assay number 28) (HT-29; basal): > 20 µM; IC50/EC50, Basal_Viability ATP SNU-C1 (assay number 30) (SNU-C1; basal): > 20 µM; IC50/EC50, Basal_Viability ATP DLD-1 (assay number 23) (DLD-1; basal): > 20 µM; IC50/EC50, VEGF_ADSC\ECFC Angio CD31 TubeArea (assay number 2) [2]: > 10 µM; IC50/EC50, GSK3b inh pretreated_Viability ATP HCT116 (assay number 26) [3]: > 20 µM
